Entries after “also recorded” stand apart in the source; their conditions may differ. Read-outs that look alike come from different tables or passages of the source.
Assays:
[1] = Formation of NPT 15392 on incubation with human peripheral blood lymphocytes (HPLC); format: in vitro ADME; conditions: human, peripheral blood lymphocytes
Description: (§1) | ^a Determined using HPLC

HPBL = experiment: as above; format: in vitro ADME; conditions: HPBL, 0 hrs.
Description: as §1

[2] = Chemical stability at varying pH, conversion to NPT 15392 (HPLC); format: physicochemical; conditions: for degraded at 3.5 h, 360 µM: 3.5 hours incubation at 37° C., 0.36 μm/ml; for Chemical stability (in words): 37° C., neutral pH
Description: Compound (conc.) % of NPT 15392*
*3.5 hours incubation at 37° C., determined using HPLC

[3] = system: Influenza virus (A sub-type)
[4] = Formation of NPT 15392 on incubation with Vero cells (HPLC); format: in vitro ADME, African Green Monkey; conditions: monkey, 24 hrs.
Description: as §1

Vero Cells = experiment: as above; format: in vitro ADME, African Green Monkey; conditions: 0 hrs.
Description: as §1

[5] = system: IgM antibody production to sheep red blood cells; experiment: IgM antibody formation in SRBC-immunized Balb/c mice (immunoplaque assay, in vivo); conditions: for Immunomodulating (in vivo) IgM formation (in words): SRBC immunized mice
Description: 4. Enhancement of IgM antibody formation in mice immunized with sheep red blood cells (SRBC) (in vivo).
4. NPT 15457 and NPT 15458 and the "active" drug, NPT 15392, were given to Balb/c mice who had been immunized with sheep red blood cells SRBC. Antibody production to SRBC was measured. […] NPT 15392, at the levels studied, produce a 46% increase in IgM production. Higher doses of NPT 15392 will cause less of an increase or decrease over control values. […] This is to be expected since NPT 15458 produces very high levels of NPT 15392 which are most likely inhibitory to IgM formation.
1. Mice are immunized as follows: sheep blood (sheep #23) is received weekly from Hyland Labs. It is aseptically collected in two volumes of Alseviers to one volume of blood.
2. Five-tenths ml of the sheep blood in Alseviers is washed three times in sterile PBS in an IEC clinical centrifuge, setting #4 (2800 rpm) for 10 min. at room temperature.
3. The pellet is resuspended in 1:10 in sterile PBS.
4. A model Z Coulter counter is calibrated according to Coulter Instruction Manual.
5. A […] dilution is needed for a Coulter counter cell count and is obtained by first making a 1:100 dilution in PBS and then diluting this solution 1:10 in isoton. The Coulter counter threshold is adjusted to setting #5.
6. The cell count is determined and the stock solution is diluted to 4×10^7 cells/ml. This final suspension is used for immunization.
7. Each mouse is immunized by i.v. injection into the lateral tail vein (warmed in a 50° C. water bath for veinous dilation) with 0.1 ml SRBC suspension; the final concentration of SRBC's is 4×10^6 per mouse.
1. Mice are treated by i.p. injection on days 0, 1, 2 and 3. A syringe (1 cc) is fitted with a one-half inch, 26 gauge needle. The needle is introduced at a 45° angle along the right side of the linea alba. A 0.2 ml volume is given to both drug and control treated groups.
2. Drug groups are given 0.2 ml of a desired concentration NPT 15392 solution which, for a 20 g mouse, is 5 μg/ml.
1. Spleens are removed aseptically and placed individually in Falcon #2025 tissue culture tubes containing 3 ml MEM. The tubes are then stored on ice.
2. Spleens are homogenized in the same tube with a teflon pestle attached to a G. K. Heller variable speed reversible motor connected with a G. K. Heller GT-21 motor controller setting #6.
3. The homogenization time and action should be uniform from sample to sample.
4. Samples are then filtered through a 100 mesh 40 micron stainless screen into a standard tissue culture tube. The screen is rinsed with 3 ml MEM and the cell suspension is stored on ice.
5. A 1:1000 dilution is made for a Coulter counter cell count and is obtained by first making a 1:100 dilution in PBS followed by a 1:10 dilution in isoton.
6. The cell count is obtained and the stock suspension is diluted to 1×10^7 cells/ml. The Coulter counter threshold is set at 10. Red cells are lysed with three drops of Zap isoton.
Agar plates are removed from regrigerator and allowed to warm to room temperature. They are labeled in triplicate for each experimental group.
2. Agar-filled tubes are removed from the water bath. One-tenth of the 10% SRBC's and 0.1 ml spleen cell suspension are added to each agar tube. The tubes are agitated on a Vortex mixer.
3. The contents of the tubes are poured immediately into agar base plates and swirled until a smooth layer is formed. The plates are placed on a level surface until the agar solidifies.
4. The plates are incubated at 37° C. in a humidified atmosphere of 5% CO2 and 95% air for 90 min.
5. Guinea pig complement (see preparation, section D) is removed from freezer, thawed at room temperature and diluted 1:10 in PBS.
6. Plates are removed from incubator and 1 ml of the diluted complement is added to each plate.
7. Plates are then incubated another 30-45 minutes at 37° C. Plates are then removed from incubator and counted using oblique light.
8. […]

HPBL (active E-rosettes) = experiment: Enhancement of active E-rosette formation in HPBL (in vitro); format: cell-based, human; conditions: for Immunomodulating (in vitro) Rosette, change: Table 11 summary; for Immunomodulating (in vitro) rosette formation (in words): active rosettes, HPBL
Description: 3. Enhancement of active rosette formation (in vitro).
3. As can be noted from Table 7, both NPT 15457 and NPT 15458 are effective in modulating active rosette formation in HPBL. […] In Experiment #2, placebo-treated controls have abnormally high values for active rosettes.
1. Ten to 40 ml of whole blood is drawn from healthy volunteers in heparinized tubes.
2. Lymphocytes are separated from the above blood using Ficoll-hypaque separation techniques.
3. Various concentration of test compound are prepared in RPMI-1640.
4. The concentration of lymphocytes are adjusted to 2×10^6 /ml of RPMI-1640.
5. Lymphocytes are incubated with test compound for 90 minutes at 37° C.
6. Sheep Red Blood Cells (SRBC.s) (one to two weeks old) are washed 3 times with PBS and diluted to a final concentration of 0.5% inj RPMI-1640.
7. Reaction tubes are set up containing the following:
8. The above reactants are centrifuged at 200×g for 5 minutes at room temperature.
9. The sediment is then gently resuspended and a […] sample placed in a hemocytometer.
10. The number of rosettes are then counted using a microscope with any lymphocyte having 3 or more attached red cells being counted as a rosette.

[6] = HPBL, 24 hrs., read-out: % of NPT 15392
[7] = Expt 1, 1.8 n moles/kg × 4 i.p., all p ≤ 0.01 vs placebo
[8] = Expt 1, 1.8 n moles/kg × 4 i.p., control 28 ± 2
[9] = Expt 2, .18 n moles/kg × 4 i.p., NPT 15392 and NPT 15458 p ≤ 0.01 vs placebo
[10] = Expt 2, .18 n moles/kg × 4 i.p., control 46 ± 2
[11] = Experiment #1, 3.6 n moles/ml, placebo 9.23 ± 2.9, NPT 15457 and NPT 15458 p ≤ 0.05 versus placebo
[12] = Experiment #2, 0.36 n moles/ml, placebo 34.2 ± 6.6, NPT 15392 and NPT 15458 p ≤ 0.05 versus placebo
[13] = Table 11 summary, read-out: Convertible to NPT 15392, Biological: HPBL

CCCCCC[C@H]([C@H](C)O)n1cnc2c(=O)[nH]cnc21 (relative stereo) [NPT 15392, erythro-9-(2-hydroxy-3-nonyl)-hypoxanthine, reference compound]
metabolised at 24 h [1, 6]: 100% | % of NPT 15392 (HPBL): 100% | degraded at 3.5 h, 360 µM ([2]; pH 1.0): 100% | degraded at 3.5 h, 360 µM ([2]; pH 7.0): 100% | degraded at 3.5 h, 360 µM ([2]; pH 9.5): 100% | % Inhibition of Influenza Virus Growth ([3]; 3.6 nmoles/ml): 30% | % Inhibition of Influenza Virus Growth ([3]; 10.8 nmoles/ml): 42% | % Inhibition of Influenza Virus Growth ([3]; 36 nmoles/ml): 73% | % Inhibition of Influenza Virus Growth ([3]; .36 nmoles/ml): 20% | Antiviral activity in vitro (in words) [3]: Yes | metabolised at 24 h [4]: 100% | % of NPT 15392 (Vero Cells): 100% | # IgM Plaques % of Control [5, 7]: 146% | # IgM Plaques (mean ± S.E.) [5, 8]: 41 ± 4 | # IgM Plaques % of Control [5, 9]: 147% | # IgM Plaques (mean ± S.E.) [5, 10]: 68 ± 2 | Immunomodulating (in vivo) IgM formation (in words) [5]: very effective in modulating the production of IgM antibodies and Yes | Immunomodulating (in vivo) SRPC-IgM, change ([5]; Table 11 summary): +46% | Increase in IgM production ([5]; at the levels studied): 46% | % Active E-Rosettes (mean ± S.E.) (HPBL (active E-rosettes); [11]): 16.2 ± 1.0% | % Active E-Rosettes (mean ± S.E.) (HPBL (active E-rosettes); [12]): 15.4 ± 2.9% | Immunomodulating (in vitro) Rosette, change (HPBL (active E-rosettes)): +78% | Immunomodulating (in vitro) rosette formation (in words) (HPBL (active E-rosettes)): able to decrease the high levels of normal values and Yes

CCCCCC[C@H]([C@H](C)OC(=O)CCC(=O)O)n1cnc2c(=O)[nH]cnc21 (relative stereo) [NPT 15457, Erythro-9-(2-Succinoxy-3-Nonyl) Hypoxanthine]
metabolised at 24 h [1, 6]: 18.2% | metabolised at 24 h [1, 13]: 18% | % of NPT 15392 (HPBL): 0% | Chemical stability (in words) [2]: have stability | degraded at 3.5 h, 360 µM ([2]; pH 1.0): 2% | Chemical conversion to NPT 15392 (in words) ([2]; pH 7.0): No | degraded at 3.5 h, 360 µM ([2]; pH 7.0): 0% | Chemical conversion to NPT 15392 (in words) ([2]; pH 9.5): basic hydrolysis at pH 9.5 can convert and Yes | degraded at 3.5 h, 360 µM ([2]; pH 9.5): 8% | % Inhibition of Influenza Virus Growth ([3]; 3.6 nmoles/ml): 0% | % Inhibition of Influenza Virus Growth ([3]; 10.8 nmoles/ml): 18% | % Inhibition of Influenza Virus Growth ([3]; 36 nmoles/ml): 13% | % Inhibition of Influenza Virus Growth ([3]; .36 nmoles/ml): 18% | metabolised at 24 h [4]: 0% | % of NPT 15392 (Vero Cells): 0% | # IgM Plaques % of Control [5, 7]: 68% | # IgM Plaques (mean ± S.E.) [5, 8]: 19 ± 3 | # IgM Plaques % of Control [5, 9]: 102% | # IgM Plaques (mean ± S.E.) [5, 10]: 47 ± 3 | Immunomodulating (in vivo) IgM formation (in words) [5]: less than that of NPT 15458; also recorded: Moderate | Immunomodulating (in vivo) SRPC-IgM, range ([5]; Table 11 summary, unit not given): 0-60 | % Active E-Rosettes (mean ± S.E.) (HPBL (active E-rosettes); [11]): 24.8 ± 6% | % Active E-Rosettes (mean ± S.E.) (HPBL (active E-rosettes); [12]): 33.6 ± 2.4% | Immunomodulating (in vitro) Rosette, change (HPBL (active E-rosettes)): +166% | Immunomodulating (in vitro) rosette formation (in words) (HPBL (active E-rosettes)): as active as NPT 15392 in restoring the depressed immunity to normal levels and Yes

CCCCCC[C@H]([C@H](C)OC(C)=O)n1cnc2c(=O)[nH]cnc21 (relative stereo) [NPT 15458, erythro-9-(2-Acetoxy-3-Nonyl)-Hypoxanthine]
metabolised at 24 h [1, 6]: 100% | metabolised at 24 h [1, 13]: 100% | % of NPT 15392 (HPBL): 0% | Chemical stability (in words) [2]: have stability | degraded at 3.5 h, 360 µM ([2]; pH 1.0): 8% | Chemical conversion to NPT 15392 (in words) ([2]; pH 7.0): No | degraded at 3.5 h, 360 µM ([2]; pH 7.0): 0% | Chemical conversion to NPT 15392 (in words) ([2]; pH 9.5): basic hydrolysis at pH 9.5 can convert and Yes | degraded at 3.5 h, 360 µM ([2]; pH 9.5): 28% | % Inhibition of Influenza Virus Growth ([3]; 3.6 nmoles/ml): 40% | % Inhibition of Influenza Virus Growth ([3]; 10.8 nmoles/ml): 80% | % Inhibition of Influenza Virus Growth ([3]; 36 nmoles/ml): 88% | % Inhibition of Influenza Virus Growth ([3]; .36 nmoles/ml): 26% | Cleavage to NPT 15392 (in words) ([3]; hemadsorption assay): almost completely cleaved to NPT 15392 | Antiviral activity in vitro (in words) [3]: Yes | metabolised at 24 h [4]: 50% | % of NPT 15392 (Vero Cells): 0% | # IgM Plaques % of Control [5, 7]: 28.5% | # IgM Plaques (mean ± S.E.) [5, 8]: 8 ± 1 | # IgM Plaques % of Control [5, 9]: 23.9% | # IgM Plaques (mean ± S.E.) [5, 10]: 11 ± 1 | Immunomodulating (in vivo) IgM formation (in words) [5]: produces an inhibition of IgM formation and very effective in modulating the production of IgM antibodies and Yes | Immunomodulating (in vivo) SRPC-IgM, change ([5]; Table 11 summary): -72% | % Active E-Rosettes (mean ± S.E.) (HPBL (active E-rosettes); [11]): 19.4 ± 1.0% | % Active E-Rosettes (mean ± S.E.) (HPBL (active E-rosettes); [12]): 23.25 ± 1.24% | Immunomodulating (in vitro) Rosette, change (HPBL (active E-rosettes)): +11% | Immunomodulating (in vitro) rosette formation (in words) (HPBL (active E-rosettes)): as active as NPT 15392 in restoring the depressed immunity to normal levels and able to decrease the high levels of normal values and Yes
